Test results taken from patent US8394971B2, “Indole derivatives as selective androgen receptor modulators (SARMS)” (Janssen Pharmaceutica N.V., priority 2004, dated 2013).

What was measured:
[1] = biological target: T1, androgen receptor (rat ventral prostate cytosol) (Rattus norvegicus, UniProt P15207); assay: Androgen Receptor Binding Using Rat Ventral Prostate Cytosol; details: for IC50: read-out: IC50
T1 construct: from tissue; host or cells: ventral prostate of castrated male Sprague Dawley or Wistar rats, cytosol
T1 sequence (P15207 1-902): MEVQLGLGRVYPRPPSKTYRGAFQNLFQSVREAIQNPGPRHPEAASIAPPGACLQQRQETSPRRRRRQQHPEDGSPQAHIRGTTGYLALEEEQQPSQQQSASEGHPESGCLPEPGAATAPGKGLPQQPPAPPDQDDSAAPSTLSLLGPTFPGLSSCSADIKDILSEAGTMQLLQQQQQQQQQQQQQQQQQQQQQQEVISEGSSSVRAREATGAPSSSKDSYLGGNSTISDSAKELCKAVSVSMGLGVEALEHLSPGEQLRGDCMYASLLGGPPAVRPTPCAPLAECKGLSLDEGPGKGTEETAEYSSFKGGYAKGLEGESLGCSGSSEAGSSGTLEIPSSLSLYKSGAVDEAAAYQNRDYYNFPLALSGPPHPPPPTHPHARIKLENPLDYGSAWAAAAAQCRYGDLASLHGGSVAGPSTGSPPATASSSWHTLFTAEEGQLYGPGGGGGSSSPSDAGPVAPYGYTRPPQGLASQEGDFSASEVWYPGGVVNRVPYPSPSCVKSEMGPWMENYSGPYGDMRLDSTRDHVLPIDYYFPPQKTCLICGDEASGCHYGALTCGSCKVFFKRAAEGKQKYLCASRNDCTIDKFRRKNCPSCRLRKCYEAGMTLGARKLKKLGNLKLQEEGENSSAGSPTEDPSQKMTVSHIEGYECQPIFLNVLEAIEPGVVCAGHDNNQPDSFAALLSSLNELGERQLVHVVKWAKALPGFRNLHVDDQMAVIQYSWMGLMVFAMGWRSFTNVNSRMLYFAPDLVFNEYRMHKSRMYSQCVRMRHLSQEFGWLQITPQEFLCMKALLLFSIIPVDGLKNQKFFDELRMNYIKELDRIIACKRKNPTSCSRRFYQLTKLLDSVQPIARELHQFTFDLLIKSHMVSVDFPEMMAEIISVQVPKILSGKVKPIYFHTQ
Experimental: The assay was run on a 96 well plate with each well filled with a total reaction volume 150 μL, of a solution containing 5 pmol androgen receptor LBD (Panvera) or 30 μL of freshly prepared rat cytosol, 0.5 nM [^3H] […] (TED buffer contains 10 mM Tris.HCl pH 7.4, 1 mM sodium molybdate, 1.5 mM EDTA, 1 mM DTT and 10% (v/v) glycerol.)
On day one, the solution containing receptor, tracer and TED buffer was distributed into a 96 well plate. Diluted test compound or control vehicle was then added to individual wells and the plate incubated at 4° C. overnight.
On day two, to each well was then added 20 μL human γ-globulin (ICN 823102), prepared at 25 mg/ml in TE pH 8.0, and 55 μL 40% polyethylene glycol 8000 (JT Baker U222-08), prepared in TE pH 8.0. The plate was incubated at 4° C. for 60 minutes. During incubation, the harvester was rinsed with 10% PEG 8000, prepared in TE pH 8.0, and a GF/C Unifilter-96 was pre-wet with 10% PEG. The binding reaction was filtered, the retentate was washed three times with 10% PEG and dried under vacuum for a couple of minutes, then dried at 50° C. for 5 min and the plate was bottom sealed. Next, 25 μL of Microscint-20 (Packard) was added to the filter wells and the plate was top sealed. The plate wells were then counted on a TopCount (Packard).
Rat Prostate Cytosol Preparation:
Male Sprague Dawley or Wistar rats (Charles River, 200-300 g) were used for each preparation. The day before preparing the cytosol, the rats were castrated using standard surgical procedures.
The rats were euthanized by carbon dioxide asphyxiation. The rat prostates were quickly removed and placed on ice in pre-chilled, pre-weighed 50 mL plastic tubes. No more than five prostates were placed into one tube. The tubes were then weighed and the prostate tissue wet weights calculated.
To the chilled prostate tissue was then added […] of chilled homogenization buffer. The homogenization buffer was freshly prepared by mixing 10 mM Tris.HCl, pH 7.4, 1 mM sodium molybdate, 1.5 mM EDTA, 1 mM dithiothreitol, 10% (v/v) glycerol and 1% protease inhibitor cocktail (Sigma P 8340).
The prostate tissue was homogenized in a cold room using a pre-chilled Polytron PT3000 homogenizer (Brinkmann). Homogenization was performed at a speed setting of 20, three times for 10 sec bursts. The tubes containing the prostate tissue was kept on ice while homogenizing. The homogenate was allowed to rest on ice for 20 sec between bursts.
The homogenate was then placed into pre-chilled 3 mL polycarbonate ultracentrifuge tubes and centrifuged in the TLA-100 rotor of a TL-100 ultracentrifuge for 12 min at 100,000 rpm at 4° C. The resulting supernatant was stored in 1 mL aliquots at −80° C. until needed.
Binding to the androgen receptor was determined according to the protocol described in Example 86 using the above prepared rat cytosol.
% Inhibition was determined by testing dilutions of the test compound (usually duplicates of 10 μM) in the binding assay. Counts per well were measured and percents of inhibition determined. […] Counts per well were measured and IC50s determined by linear regression.

[2] = biological target: T2, androgen receptor (adenovirus AdEasy+rAR in L929 cells) (Rattus norvegicus, UniProt P15207); assay: L929 Androgen Receptor Functional Assay, Adenovirus Transduction; assay type: cell-based; details: for % Activity: L929 agonist testing
T2 construct: expressed in transfected cells
T2 sequence (P15207 1-902): T1 sequence (P15207 1-902)
How it was run: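 Luminescent reporter readout after 48 h at 37 °C: rat AR delivered by adenovirus (AdEasy+rAR, moi 1:500) into L929 cells grown without phenol red in charcoal-treated serum. Antagonist wells also received R1881 (2.5× dilution at 2.5 nM).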

[3] = system: testosterone-enhanced ventral prostate and seminal vesicle weights in castrated male Sprague Dawley rats; assay: Ventral Prostate and Seminal Vesicle Weight In Vivo Assay; design: species or system rat; details: immature castrated rats; once daily for five days, usually orally at 40 mg/kg, with testosterone propionate 2 mg/kg s.c.
How it was run: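 Immature (~50 g) castrated Sprague Dawley rats dosed once daily for five days with compound (usually oral, 40 mg/kg, cyclodextrin or methylcellulose vehicle) plus testosterone propionate 2 mg/kg s.c. Wet ventral prostate and seminal vesicle weights taken on day six; activity judged by prostate weight or body-weight-adjusted % inhibition.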

[4] = biological target: T3, androgen receptor (adenovirus AdEasy+rAR in COS-7 cells) (Rattus norvegicus, UniProt P15207); assay: COS-7 Whole-Cell Androgen Receptor Binding Assay, Adenovirus Transduction; details: COS binding; for inhibition at 3 µM / % Inhibition: 3000 nM unless otherwise noted
T3 construct: expressed in transfected cells
T3 sequence (P15207 1-902): T1 sequence (P15207 1-902)

[5] = rat cytosol, concentration 1000 nM

SMILES	% Activity ([2]; 3000 nM) [%]	active / inactive (inhibition of testosterone-enhanced prostate weight) [3]	inhibition at 3 µM [4] [%]	other results
CC(O)(c1cc2cc([N+](=O)[O-])c(C(F)(F)F)cc2[nH]1)S(=O)(=O)c1ccc(Cl)c(Cl)c1 (racemic) [compound 255]	–	–	–	% Inhibition [1, 5]: 26%
CC(C)(C)c1ccc(CN2CCC(O)(c3cc4cc(Cl)c(C(F)(F)F)cc4[nH]3)CC2)cc1 [Compound #32]	–	–	–	inhibition at 1 µM [1, 5]: 34%; IC50 ([1]; rat cytosol): 43 µM
OC1(c2cc3cc(Cl)c(C(F)(F)F)cc3[nH]2)CCN(Cc2ccc(C(F)(F)F)cc2)CC1 [Compound #33]	–	–	–	inhibition at 1 µM [1, 5]: 11%; IC50 ([1]; rat cytosol): 29 µM
Cc1ccc(CN2CCC(O)(c3cc4cc([N+](=O)[O-])c(C(F)(F)F)cc4[nH]3)CC2)cc1 [Compound #42]	–	–	–	% Inhibition ([1]; 1 µM): 23%; IC50 ([1]; rat cytosol): 7.1 µM
CCCSCC(C)(O)c1cc2cc([N+](=O)[O-])c(C(F)(F)F)cc2[nH]1 (centres unmarked) [compound 168]	3	inactive	60	–
CCSCC(O)(CC)c1cc2cc([N+](=O)[O-])c(C(F)(F)F)cc2[nH]1 (centres unmarked) [compound 169]	2	active	90	–
CC(O)(CSCC(F)(F)F)c1cc2cc([N+](=O)[O-])c(C(F)(F)F)cc2[nH]1 (centres unmarked) [compound 171]	–	active	92	% Activity ([2]; 3000 nM, 3 µM): 11%; % Activity ([2]; @ 8000 nM): −1 @ 8000 nM %; % Inhibition [4]: 94%
CC(O)(CSC1CCCC1)c1cc2cc([N+](=O)[O-])c(C(F)(F)F)cc2[nH]1 (centres unmarked) [compound 173]	2	inactive	17	–
CCC(O)(CS(=O)(=O)CC)c1cc2cc([N+](=O)[O-])c(C(F)(F)F)cc2[nH]1 (centres unmarked) [compound 176]	3	active	75	–
CCCS(=O)(=O)CC(C)(O)c1cc2cc([N+](=O)[O-])c(C(F)(F)F)cc2[nH]1 (centres unmarked) [compound 177]	2	active	90	–
CCC(O)(CSCC(F)(F)F)c1cc2cc([N+](=O)[O-])c(C(F)(F)F)cc2[nH]1 (centres unmarked) [compound 185]	2	active	92	–
CC(O)(CSCC(F)(F)F)c1cc2cc(F)c(C(F)(F)F)cc2[nH]1 (centres unmarked) [compound 189]	3	inactive	100	–
CC(O)(CSCC(F)(F)F)c1cc2cc(Cl)c(C(F)(F)F)cc2[nH]1 (centres unmarked) [compound 190]	1	active	100	–
CCC(O)(CS(=O)(=O)CC(F)(F)F)c1cc2cc([N+](=O)[O-])c(C(F)(F)F)cc2[nH]1 (centres unmarked) [compound 191]	2	active	65	–
CCC(O)(CSCC(F)(F)F)c1cc2cc(Cl)c(C(F)(F)F)cc2[nH]1 (centres unmarked) [compound 192]	8	active	86	–
CCC(O)(CSCC(F)(F)F)c1cc2cc(F)c(C(F)(F)F)cc2[nH]1 (centres unmarked) [compound 194]	2	inactive	80	–
CC(O)(CSCc1cccs1)c1cc2cc([N+](=O)[O-])c(C(F)(F)F)cc2[nH]1 (centres unmarked) [compound 197]	2	inactive	86	–
CCC(O)(CS(=O)(=O)CC(F)(F)F)c1[nH]c2cc(C(F)(F)F)c([N+](=O)[O-])cc2c1Cl (centres unmarked) [compound 199]	2	inactive	82	–
CCCCSCC(C)(O)c1cc2cc([N+](=O)[O-])c(C(F)(F)F)cc2[nH]1 (centres unmarked) [compound 200]	1	inactive	97	–
CC(O)(CSCC(F)(F)F)c1cc2cc([N+](=O)[O-])c(C(F)(F)F)cc2[nH]1 (centres unmarked) [compound 201]	–	inactive	–	% Activity ([2]; 3000 nM, 3 µM): 2%; % Inhibition [4]: 86%
CCSCC(C)(O)c1cc2cc(C#N)c(C(F)(F)F)cc2[nH]1 (centres unmarked) [compound 209]	–	active	61	% Activity ([2]; @ 8000 nM): −3 @ 8000 nM %
CCSCC(C)(O)c1cc2cc([N+](=O)[O-])cc(C(F)(F)F)c2[nH]1 (centres unmarked) [compound 212]	−3	active	86	–
CC(O)(CSCC(F)(F)F)c1[nH]c2cc(C(F)(F)F)c([N+](=O)[O-])cc2c1I (centres unmarked) [compound 213]	–	active	71	% Activity ([2]; @ 8000 nM): −1 @ 8000 nM %
CCSCC(C)(OC)c1cc2cc(C#N)c(C(F)(F)F)cc2n1C (centres unmarked) [compound 235]	3	inactive	78	–
CCSCC(C)(O)c1cc2cc(C#N)c(C(F)(F)F)cc2n1C (centres unmarked) [compound 236]	2	active	83	–
CC[S+]([O-])CC(C)(O)c1[nH]c2cc(C(F)(F)F)c(C#N)cc2c1C (centres unmarked) [compound 252]	1	active	68	inhibition at 3 µM ([2]; L929, L929 antagonist testing with R1881, 3000 nM): 65%; IC50 ([4]; read-out: IC50): > 3 µM
